Measured values: patent US12180139B2, “Method for preparing aminoalkanoic acid derivative containing biphenyl group” (AMTIXBIO CO., LTD., priority 2019, dated 2024)
Values after ≈ are worked out from the molar mass of the structure shown.

Experiments:
B. cereus (+) = assay: Antibacterial MIC test (CLSI); type: cell-based; conditions: for MIC B. cereus (+): MHB liquid medium, 37° C., 24 hours
Description: (§1) The MIC test was conducted in accordance CLSI guidelines. […] As a positive control, Nofloxacin and Vancomycin were used.

B. coagulans (+) = assay: Antibacterial MIC test (CLSI); type: cell-based; conditions: for MIC B. coagulans (+): MHB liquid medium, 37° C., 24 hours
Description: as §1

B. subtilis (+) = assay: Antibacterial MIC test (CLSI); type: cell-based; conditions: for MIC B. subtilis (+): MHB liquid medium, 37° C., 24 hours
Description: as §1

E. coli (−) = assay: Antibacterial MIC test (CLSI); type: cell-based; conditions: for MIC E. coli (−): MHB liquid medium, 37° C., 24 hours
Description: as §1

L. monocytogenes (+) = assay: Antibacterial MIC test (CLSI); type: cell-based; conditions: for MIC L. monocytogenes (+): MHB liquid medium, 37° C., 24 hours
Description: as §1

M. luteus (+) = assay: Antibacterial MIC test (CLSI); type: cell-based; conditions: for MIC M. luteus (+): MHB liquid medium, 37° C., 24 hours
Description: as §1

P. acnes (+) = assay: Antibacterial MIC test (CLSI); type: cell-based; conditions: for MIC P. acnes (+): MHB liquid medium, 37° C., 24 hours
Description: as §1

S. aureus enterica (−) = assay: Antibacterial MIC test (CLSI); type: cell-based; conditions: for MIC S. aureus enterica (−): MHB liquid medium, 37° C., 24 hours
Description: as §1

S. aureus (+) = conditions: MHB liquid medium, 37° C., 24 hours
Description: (§2) The antibacterial activities against Gram-positive bacteria, Gram-negative bacteria or multi-drug resistant bacteria were evaluated for the compounds of the present invention. The MIC test was conducted in accordance CLSI guidelines. E. coli(−), P. aeruginosa(−), and S. enterica(−) were used as Gram-negative bacteria, B. cereus(+), B. subtilis(+), B. coagulans(+), L. monocytogenes(+), M. luteus(+), P. acnes(+), S. epidermidis(+), and S. aureus(+) were used as Gram-positive bacteria. Methicillin-resistant Staphylococcus aureus (MRSA) was used as multi-drug resistant bacteria. The bacterial cells were incubated until the OD600 of the single colonies reached 0.1. […] Subsequently, bacterial cells were incubated at 37° C. for 24 hours, and then the MICs (μg/ ? ) were determined by visual reading and optical density detection at 600 nm (OD600). As a positive control, Nofloxacin and Vancomycin were used.

S. epidermidis (+) = conditions: MHB liquid medium, 37° C., 24 hours
Description: as §2

MRSA = assay: Antibacterial MIC test (CLSI); type: cell-based, Methicillin-resistant Staphylococcus aureus; conditions: for MIC MRSA: MHB liquid medium, 37° C., 24 hours
Description: as §1

C. neoformans = conditions: RPMI1640 broth, 35° C., 72 hours, visual reading; expressed as a range value
Description: (§3) An in vitro antifungal susceptibility test was performed in accordance with the US Clinical and Laboratory Standards Institute (CLSI) guidelines to measure the degree of antifungal activity of the compounds synthesized in the Preparation Examples against opportunistic pathogenic fungi. […] The MIC value (μg/ ? ) is expressed as a range value. Specifically, Candida species and Cryptococcus neoformans were incubated in a Sabouraud dextrose agar (SDA) (Sigma-Aldrich) solid medium for 24 and 48 hours, respectively to obtain single colonies. The obtained single colonies were suspended in 0.85% physiological saline to prepare fungal cell suspension (1 to 5×10^6 cells/ ? ). Fungal cells 2000-fold diluted in RPMI1640 broth (Sigma-Aldrich) were seeded on 96-well plates (5×10^2 to 2.5×10^3 cells/ ? , 195 ? /well). Serial two-fold dilutions (128, 64, 32, 16, 8, 4, 2, 1, and 0.5 μg/ ? ) of compounds were prepared by diluting the compounds synthesized according to the above preparation examples. Then, 5 ? from each dilution was added to the well of the 96-well plate containing fungal cell suspension to give a final suspension of 200 ? per well. […] As a positive control, amphotericin B (AMB), which is highly toxic to the human body but is known as a representative antifungal agent, was used.

C. albicans = conditions: RPMI1640 broth, 35° C., 48 hours, visual reading; expressed as a range value
C. glabrata = conditions: RPMI1640 broth, 35° C., 48 hours, visual reading; expressed as a range value
Description: as §3

A. fumigatus = conditions: visual reading; expressed as a range value
Description: as §3

| Compound | MIC B. cereus (+) (B. cereus (+)) [µg/mL] | MIC B. coagulans (+) (B. coagulans (+)) [µg/mL] | MIC B. subtilis (+) (B. subtilis (+)) [µg/mL] | MIC E. coli (−) (E. coli (−)) [µg/mL] | MIC L. monocytogenes (+) (L. monocytogenes (+)) [µg/mL] | MIC M. luteus (+) (M. luteus (+)) [µg/mL] | MIC P. acnes (+) (P. acnes (+)) [µg/mL] | MIC S. aureus enterica (−) (S. aureus enterica (−)) [µg/mL] | MIC S. aureus (+) (S. aureus (+)) [µg/mL] | MIC S. epidermidis (+) (S. epidermidis (+)) [µg/mL] | MIC MRSA (MRSA) [µg/mL] | MIC (μg/mL) C. neoformans (C. neoformans) | MIC (μg/mL) C. albicans (C. albicans) | MIC (μg/mL) C. glabrata (C. glabrata) | MIC (μg/mL) A. fumigatus (A. fumigatus) | other results |
| --- | --- | --- | --- | --- | --- | --- | --- | --- | --- | --- | --- | --- | --- | --- | --- | --- |
| CCCC(NC)C(=O)NCc1ccc(-c2ccc(Cl)c(Cl)c2)cc1.Cl (racemic) [Compound 51, (R)/(S)-N-((3′,4′-dichloro-[1,1′-biphenyl]-4-yl)methyl)-2-(methylamino)pentanamide hydrochloride] | 32 | 4 | 16 | >32 | 16 | 16 | 16 | >32 | 16 | 16 | 16 | 2~8 μg/mL | 4~16 μg/mL | 4~16 μg/mL | 4~16 μg/mL |  |
| CN[C@H](CC(C)C)C(=O)N[C@H]1C(=O)N[C@@H](CC(N)=O)C(=O)N[C@H]2C(=O)N[C@H]3C(=O)N[C@H](C(=O)N[C@H](C(=O)O)c4cc(O)cc(O)c4-c4cc3ccc4O)[C@H](O)c3ccc(c(Cl)c3)Oc3cc2cc(c3O[C@@H]2O[C@H](CO)[C@@H](O)[C@H](O)[C@H]2O[C@H]2C[C@](C)(N)[C@H](O)[C@H](C)O2)Oc2ccc(cc2Cl)[C@H]1O [Vancomycin, reference compound] |  |  |  |  |  |  |  |  |  |  |  |  |  |  |  | MIC (B. cereus (+); Bacillus cereus, 24 h, read-out: MIC B. cereus (+)): 0.5 µg/mL (≈ 0.345 µM); MIC (B. coagulans (+); Heyndrickxia coagulans, 24 h, read-out: MIC B. coagulans (+)): 0.25 µg/mL (≈ 0.173 µM); MIC (B. subtilis (+); Bacillus subtilis, 24 h, read-out: MIC B. subtilis (+)): 0.25 µg/mL (≈ 0.173 µM); MIC (E. coli (−); Escherichia coli, 24 h, read-out: MIC E. coli (−)): 64 µg/mL (≈ 44.2 µM); MIC (L. monocytogenes (+); Listeria monocytogenes, 24 h, read-out: MIC L. monocytogenes (+)): 0.25 µg/mL (≈ 0.173 µM); MIC (M. luteus (+); Micrococcus luteus, 24 h, read-out: MIC M. luteus (+)): 0.25 µg/mL (≈ 0.173 µM); MIC (P. acnes (+); Cutibacterium acnes, 24 h, read-out: MIC P. acnes (+)): < 0.125 µg/mL; MIC (S. aureus enterica (−); Staphylococcus aureus, 24 h, read-out: MIC S. aureus enterica (−)): > 64 µg/mL; MIC (MRSA; Staphylococcus aureus, MRSA, 24 h, read-out: MIC MRSA): 1 µg/mL (≈ 0.69 µM) |
| CCCC(NC)C(=O)NCCc1ccc(-c2ccc(OC(F)(F)F)cc2)cc1.Cl (racemic) [Compound 90, (R)/(S)-2-(methylamino)-N-(2-(4′-(trifluoromethoxy)-[1,1′-biphenyl]-4-yl)ethyl)pentanamide hydrochloride] |  |  |  |  |  |  |  |  |  |  |  | 4~16 μg/mL | 4~16 μg/mL | 4~16 μg/mL | 4~16 μg/mL |  |
| C[C@@H]1[C@H](O)[C@@H](C)/C=C/C=C/C=C/C=C/C=C/C=C/C=C/[C@H](O[C@@H]2O[C@H](C)[C@@H](O)[C@H](N)[C@@H]2O)C[C@@H]2O[C@](O)(C[C@@H](O)C[C@@H](O)[C@H](O)CC[C@@H](O)C[C@@H](O)CC(=O)O[C@H]1C)C[C@H](O)[C@H]2C(=O)O [ABM, amphotericin B, reference compound] |  |  |  |  |  |  |  |  |  |  |  | 0.25 µg/mL (≈ 0.271 µM) | 0.25 µg/mL (≈ 0.271 µM) | 0.5 µg/mL (≈ 0.541 µM) | 1 µg/mL (≈ 1.08 µM) |  |
| CCCCC(N)C(=O)NCCc1ccc(-c2ccc(Cl)c(Cl)c2)cc1.Cl (racemic) [Compound 75, (R)/(S)-2-amino-N-(2-(3′,4′-dichloro-[1,1′-biphenyl]-4-yl)ethyl)hexanamide hydrochloride] | 16 |  | 8 | 32 | 8 | 8 | 8 | >32 | 8 | 8 | 8 | 0.5~4 μg/mL | 0.5~4 μg/mL | 0.5~4 μg/mL | 0.5~4 μg/mL |  |
| CCCC(N)C(=O)Nc1ccc(-c2ccc(Cl)c(Cl)c2)cc1.Cl (racemic) [Compound 30, (R)/(S)-2-amino-N-(3′,4′-dichloro-[1,1′-biphenyl]-4-yl)pentanamide hydrochloride] | 32 | 8 | 16 | >32 | 16 |  | 16 | >32 | 16 | 16 | 16 | 2~8 μg/mL | 4~16 μg/mL | 4~16 μg/mL | 4~16 μg/mL |  |
